What all share (assay type): biochemical
In assay [1] the target is T1, MMP-1 (Homo sapiens, UniProt P03956).
T1 construct: purchased R&D Systems 901-MP
T1 sequence (P03956 100-469): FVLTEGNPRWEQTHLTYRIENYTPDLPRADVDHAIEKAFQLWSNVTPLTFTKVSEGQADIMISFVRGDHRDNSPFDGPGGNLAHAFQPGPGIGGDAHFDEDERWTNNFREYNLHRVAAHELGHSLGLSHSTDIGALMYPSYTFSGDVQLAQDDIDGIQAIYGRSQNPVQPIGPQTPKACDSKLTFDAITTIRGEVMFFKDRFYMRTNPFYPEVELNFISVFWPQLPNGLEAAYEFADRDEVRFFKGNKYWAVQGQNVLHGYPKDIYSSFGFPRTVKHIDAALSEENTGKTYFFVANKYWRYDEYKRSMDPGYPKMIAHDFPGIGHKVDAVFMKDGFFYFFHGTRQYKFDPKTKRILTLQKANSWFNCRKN
In words: In vitro MMP-1 inhibition test. The text has this:
(§1) The MMP-mediated amidolytic cleavage of a suitable peptide substrate leads to an increase in fluorescent light here too. The signal intensity of the fluorescent light is directly proportional to the enzyme activity. The active concentration of a test compound at which half the enzyme is inhibited (50% signal intensity of the fluorescent light) is reported as the IC50 value.
(§2) Recombinant MMP-1 (from R&D Systems, 901-MP) is chemically activated in accordance with the manufacturer's instructions using APMA. 1 μl of the test compound to be analysed (as a solution in DMSO, suitable concentrations, for example, 1 nM to 30 μM) is pipetted into 24 μl of activated enzyme (final concentration, for example, 2 nM) in reaction buffer (50 mM Tris/HCl pH 7.5, 10 mM CaCl2, 150 mM NaCl, 0.05% Brij®-35) in a white 384-hole microtiter plate (MTP). The enzymatic reaction is started by adding the intramolecularly quenched Mca-Pro-Leu-Gly-Leu-Dpa(Dnp)-Ala-Arg-NH2 substrate (final concentration, for example, 10 μM; R&D Systems, ES-001), so as to result in a total test volume of 50 μl. The course of the MMP-1 reaction is measured by measuring the fluorescence intensity (excitation 320 nm, emission 410 nm) over a suitable period of time (for example over 120 min at a temperature of 32° C.).

Assay [2] has as its target T2, MMP-10 (Homo sapiens, UniProt P09238).
T2 construct: purchased R&D Systems 910-MP
In words: In vitro MMP-10 inhibition test.
Text: as §1
as §2, with “MMP-10” for “MMP-1”, “910-MP)” for “901-MP)”, “Mca-Arg-Pro-Lys-Pro-Val-Glu-Nval-Trp-Arg-Lys(Dnp)-NH2” for “Mca-Pro-Leu-Gly-Leu-Dpa(Dnp)-Ala-Arg-NH2”, “ES-002),” for “ES-001),”

For assay [3], the target named is T3, human macrophage elastase (HME/hMMP-12) (Homo sapiens, UniProt P39900).
T3 construct: 0.5 nM HME; purchased R&D Systems 917-MP
T3 sequence (P39900 106-470): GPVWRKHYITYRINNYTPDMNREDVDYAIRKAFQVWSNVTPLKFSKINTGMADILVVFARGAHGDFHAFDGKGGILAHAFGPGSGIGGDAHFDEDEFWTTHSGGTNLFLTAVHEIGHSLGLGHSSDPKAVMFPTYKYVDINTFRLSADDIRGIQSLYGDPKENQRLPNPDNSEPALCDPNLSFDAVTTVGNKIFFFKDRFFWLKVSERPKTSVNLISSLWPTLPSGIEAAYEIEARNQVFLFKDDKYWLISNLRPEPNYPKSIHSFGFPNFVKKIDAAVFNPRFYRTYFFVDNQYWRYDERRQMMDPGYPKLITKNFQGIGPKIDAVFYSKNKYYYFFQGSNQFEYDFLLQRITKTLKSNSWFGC
In words: In vitro HME inhibition test (standard or high-sensitivity). The following applies: in some cases mean values. A digest of the protocol:
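Fluorogenic assay: 0.5 nM autoactivated HME with 5 µM Mca-Pro-Leu-Gly-Leu-Glu-Glu-Ala-Dap(Dnp)-NH2 in HEPES pH 7.4 buffer (NaCl, CaCl2, ZnCl2, EDTA, Brij), 2 h at 37 °C; ex 323/em 393 nm. IC50 from fluorescence versus concentration. High-sensitivity format: ~0.05 nM enzyme, ~16 h incubation.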

For assay [4], the target named is T4, MMP-14 (Homo sapiens, UniProt P50281).
T4 construct: purchased R&D Systems 918-MP
In words: In vitro MMP-14 inhibition test.
Text: as §1
Recombinant MMP-14 (from R&D Systems, 918-MP) is enzymatically activated in accordance with the manufacturer's instructions using recombinant furin (from R&D Systems, 1503-SE). 1 μl of the test compound to be analysed (as a solution in DMSO, suitable concentrations e.g. 1 nM to 30 μM) is pipetted into 24 μl of activated enzyme (final concentration e.g. 0.5 nM) in reaction buffer (50 mM Tris/HCl pH 7.5, 10 mM CaCl2, 150 mM NaCl, 0.05% Brij®-35) in a white 384-hole microtiter plate (MTP). The enzymatic reaction is started by adding the intramolecularly quenched Mca-Lys-Pro-Leu-Gly-Leu-Dpa(Dnp)-Ala-Arg-NH2 substrate (final concentration, for example, 5 μM; R&D Systems, ES-010), so as to result in a total test volume of 50 The course of the MMP-14 reaction is measured by measuring the fluorescence intensity (excitation 320 nm, emission 410 nm) over a suitable period of time (for example over 120 min at a temperature of 32° C.).

We go through 12 compounds from patent US20170022171A1, “2,5-DISUBSTITUTED CYCLOPENTANECARBOXYLIC ACIDS AND THEIR USE” (Bayer Pharma Aktiengesellschaft, priority 2014, published 2017).

Where only a bound is given, the exact number is not on record here.

T2 sequence (P09238 99-476): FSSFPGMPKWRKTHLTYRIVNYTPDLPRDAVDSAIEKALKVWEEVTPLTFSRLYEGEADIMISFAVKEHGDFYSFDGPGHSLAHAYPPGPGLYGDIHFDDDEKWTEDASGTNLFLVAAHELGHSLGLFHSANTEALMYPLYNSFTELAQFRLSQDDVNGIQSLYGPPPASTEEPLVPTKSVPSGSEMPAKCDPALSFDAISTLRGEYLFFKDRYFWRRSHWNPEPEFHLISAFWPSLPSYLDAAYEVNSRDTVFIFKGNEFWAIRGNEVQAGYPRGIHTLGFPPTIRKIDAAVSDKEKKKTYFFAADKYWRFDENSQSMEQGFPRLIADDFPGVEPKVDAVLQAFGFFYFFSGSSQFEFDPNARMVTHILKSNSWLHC

With `O=C(O)[C@@H]1[C@@H](Cn2nnc3ccc(C(F)(F)F)cc3c2=O)CC[C@H]1C(=O)c1ccc(OCCC2CCCCC2)cc1` (single isomer, unassigned) [Example 52, (+)-(1RS,2RS,5SR)-2-[4-(2-Cyclohexylethoxy)benzoyl]-5-{[4-oxo-6-(trifluoromethyl)-1,2,3-benzotriazin-3(4H)-yl]methyl}cyclopentanecarboxylic acid], the IC50 in assay [1] is 6300 nM; in assay [2] it was 52 nM; in assay [3], 0.017 nM; in assay [4], 3600 nM.

For `CCCCOc1ccc(C(=O)[C@@H]2CC[C@H](Cn3nnc4ccc(C(F)(F)F)cc4c3=O)[C@H]2C(=O)O)cc1` (single isomer, unassigned) [Example 67, (+)-(1RS,2RS,5SR)-2-(4-Butoxybenzoyl)-5-{[4-oxo-6-(trifluoromethyl)-1,2,3-benzotriazin-3(4H)-yl]methyl}cyclopentanecarboxylic acid], the IC50 in assay [1] amounted to 5200 nM; in assay [2] it was 14 nM; in assay [3] it was 0.015 nM; in assay [4], 96 nM.

Regarding `O=C(O)[C@@H]1[C@@H](Cn2nnc3ccc(C(F)(F)F)cc3c2=O)CC[C@H]1C(=O)c1ccc(OCCC2CCCC2)cc1` (single isomer, unassigned) [Example 55, (+)-(1RS,2RS,5SR)-2-[4-(2-Cyclopentylethoxy)benzoyl]-5-{[4-oxo-6-(trifluoromethyl)-1,2,3-benzotriazin-3(4H)-yl]methyl}cyclopentanecarboxylic acid], the IC50 came to 15000 nM in assay [1], 50 nM in assay [2], 0.037 nM in assay [3] and 2400 nM in assay [4].

Turning to `Cc1cccc(COc2ccc(C(=O)[C@H]3CC[C@@H](Cn4nnc5ccc(C(F)(F)F)cc5c4=O)[C@@H]3C(=O)O)cc2)c1` (racemic) [Example 15, (+/−)-(1RS,2RS,5SR)-2-{4-[(3-Methylbenzyl)oxy]benzoyl}-5-{[4-oxo-6-(trifluoromethyl)-1,2,3-benzotriazin-3(4H)-yl]methyl}cyclopentanecarboxylic acid], the IC50 in assay [1] turned out to be 8300 nM; in assay [2] it was 26 nM; in assay [3], 0.05 nM; in assay [4], 180 nM.

In the case of `O=C(O)[C@H]1[C@H](Cn2nnc3ccc(C(F)(F)F)cc3c2=O)CC[C@@H]1C(=O)c1ccc(OCCCC2CCCCC2)cc1` (racemic) [Example 56, (+/−)-(1RS,2RS,5SR)-2-{4-(3-Cyclohexylpropoxy)benzoyl}-5-{[4-oxo-6-(trifluoromethyl)-1,2,3-benzotriazin-3(4H)-yl]methyl}cyclopentanecarboxylic acid], the IC50 was more than 40000 nM in assay [1], 250 nM in assay [2], 0.2 nM in assay [3] and more than 40000 nM in assay [4].

With `Cc1ccc2nnn(C[C@@H]3CC[C@H](C(=O)c4ccc(OCc5cccc(C(F)(F)F)c5)cc4)[C@H]3C(=O)O)c(=O)c2c1` (racemic) [Example 100, (+/−)-(1RS,2SR,5RS)-2-[(6-Methyl-4-oxo-1,2,3-benzotriazin-3(4H)-yl)methyl]-5-(4-{[3-(trifluoromethyl)benzyl]oxy}benzoyl)cyclopentanecarboxylic acid], the IC50 was more than 40000 nM in assay [1], 160 nM in assay [2], 0.08 nM in assay [3] and 720 nM in assay [4].

Take `CCCCCOc1ccc(C(=O)[C@H]2CC[C@@H](Cn3nnc4ccc(C)cc4c3=O)[C@@H]2C(=O)O)cc1` (racemic) [Example 123, (+/−)-(1RS,2SR,5RS)-2-[(6-Methyl-4-oxo-1,2,3-benzotriazin-3(4H)-yl)methyl]-5-[4-(pentyloxy)benzoyl]cyclopentanecarboxylic acid]: the IC50 was determined as 24000 nM in assay [1], 81 nM in assay [2], 0.088 nM in assay [3] and 490 nM in assay [4].

On to `O=C(O)[C@@H]1[C@@H](Cn2nnc3ccc(C(F)(F)F)cc3c2=O)CC[C@H]1C(=O)c1ccc(OCc2cccc(N3CCOC3=O)c2)cc1` (single isomer, unassigned) [Example 35, (+)-(1RS,2RS,5SR)-2-(4-{[3-(2-Oxo-1,3-oxazolidin-3-yl)benzyl]oxy}benzoyl)-5-{[4-oxo-6-(trifluoromethyl)-1,2,3-benzotriazin-3(4H)-yl]methyl}cyclopentanecarboxylic acid], for which the IC50 in assay [1] is 2100 nM; in assay [2] it was 53 nM; in assay [3], 0.013 nM; in assay [4], 170 nM.

As to `O=C(O)[C@H]1[C@H](Cn2nnc3ccccc3c2=O)CC[C@@H]1C(=O)c1ccc(OCCC2CCCCC2)cc1` (racemic) [Example 5, (+/−)-(1RS,2RS,5SR)-2-[4-(2-Cyclohexylethoxy)benzoyl]-5-[(4-oxo-1,2,3-benzotriazin-3(4H)-yl)methyl]cyclopentanecarboxylic acid], the IC50 is more than 40000 nM in assay [1], 93 nM in assay [2], 0.07 nM in assay [3] and 620 nM in assay [4].

On to `O=C(O)[C@H]1[C@H](Cn2nnc3ccccc3c2=O)CC[C@@H]1C(=O)c1ccc(OCc2ccc(F)cc2)cc1` (racemic) [Example 1, (+/−)-(1RS,2RS,5SR)-2-{4-[(4-Fluorobenzyl)oxy]benzoyl}-5-[(4-oxo-1,2,3-benzotriazin-3(4H)-yl)methyl]cyclopentanecarboxylic acid], for which the IC50 in assay [1] worked out at 5200 nM; in assay [2], 33 nM; in assay [3], 0.052 nM; in assay [4] it was 24 nM.

As for `O=C(O)[C@@H]1[C@@H](Cn2nnc3ccc(C(F)(F)F)cc3c2=O)CC[C@H]1C(=O)c1ccc(SCc2ccc(Cl)c(Cl)c2)cc1` (single isomer, unassigned) [Example 80, (+)-(1RS,2RS,5SR)-2-{4-[(3,4-Dichlorobenzyl)sulphanyl]benzoyl}-5-{[4-oxo-6-(trifluoromethyl)-1,2,3-benzotriazin-3(4H)-yl]methyl}cyclopentanecarboxylic acid], the IC50 in assay [1] was 2500 nM; in assay [2] it was 53 nM; in assay [3], 0.079 nM; in assay [4], 2600 nM.

Regarding `O=C(O)[C@H]1[C@H](Cn2nnc3ccc(C(F)(F)F)cc3c2=O)CC[C@@H]1C(=O)c1ccc(OCCCc2ccccc2)cc1` (racemic) [Example 39, (+/−)-(1RS,2SR,5RS)-2-{[4-Oxo-6-(trifluoromethyl)-1,2,3-benzotriazin-3(4H)-yl]methyl}-5-[4-(3-phenylpropoxy)benzoyl]cyclopentanecarboxylic acid], the half-inhibitory concentration (IC50) was more than 40000 nM in assay [1], 170 nM in assay [2], 0.044 nM in assay [3] and 6400 nM in assay [4].

In general, IC50 refers to the concentration at which inhibition is half-maximal. Read a high IC50 as lower potency.
